Data reported in patent US12503456B2, “Substituted pyrimidines and 1,3,5-triazines as RHOJ inhibitors” (Fondazione Istituto Italiano Di Tecnologia, priority 2017, dated 2025).
Like-named read-outs stand apart in the source and are kept apart here.

How the values were obtained:
Type in all cases: cell-based
melanoma cells = assay: Cell viability assay (Cell Titer-Glo), inhibitor alone or with Cisplatin
Experimental: Cells were seeded at 10,000 cells/well in 96-well plates and incubated for 24 h at 37° C. with 5% CO2. […] The cell viability was determined using the Cell Titer-Glo luminescent cell viability assay kit (Promega, Madison, WI), according to the manufacturer's instructions. Luminescence was measured using a DTX 800 microplate reader (Coulter). The half-maximal inhibitory concentration (IC50) values were calculated using the GraphPad Prism software. The assay was done by conducting 3 independent experiments.

WM3248 melanoma cells = assay: Flow cytometric analyses for apoptosis (Annexin V and PI); conditions: 24 hours, FIG. 1
Experimental: Approximately 1×10^6 melanoma cells treated with inhibitors for 24 hours and were then trypsinized and washed with PBS, the single-cell suspensions were incubated with Alexa Fluor-Annexin V and propidium iodide (PI) (V13245; Invitrogen) per the manufacturer's protocol and were subjected to flow cytometric analysis. In all cases, cell debris was gated out on the basis of forward scatter and side scatter analysis. Data was analyzed using FlowJo (Ashland, OR). Results are illustrated in FIG. 1, wherein WM3248 melanoma cells were treated with the indicated doses of compound 1 (ARN12405) and apoptosis was measured by flow cytometry using Annexin V and PI.

RhoJ PAK interaction = biological target: T1, RhoJ PAK interaction (Homo sapiens, UniProt Q9H4E5); assay: Cdc42 activation assay (PAK1 PBD bead pull-down, immunoblot); conditions: cell lysates from WM3248 cells, PAK coupled beads, FIG. 2
T1 construct: host or cells: WM3248 cells
Experimental: A Cdc42 activation assay was performed according the manufacturer's protocol (Cell Biolabs, San Diego, CA). Briefly, cells treated with the inhibitor were lysed and either loaded with GDP or GTPyS. Agarose beads conjugated with the PAK1 PBD domain pulled down Cdc42, Rac1, or RhoJ only when GTP-bound. Lysates were then immunoblotted with indicated Abs. Results are illustrated in FIG. 2. […] Briefly, cells were treated with compound 1 (ARN12405) and cell lysates were prepared and incubated with PAK coupled beads. Immunoprecipitated proteins were subjected to SDS PAGE and immunoblotted with a (A) RhoJ antibody, (B) Cdc42 antibody, (C) Rac1 antibody, (D) Cells were treated with one of a panel of RhoJ interaction inhibitors at a concentration of 10 μm or 50 μm (see FIG. 2, panels A-D). Lysates were prepared, incubated with PAK coupled beads, and immunoprecipitated proteins were immunoblotted with a RhoJ antibody.

[1] = inhibitor (1.25-50 μM) with Cisplatin at 20 μM, 24 hours, Cell Titer-Glo, 3 independent experiments, read-out: IC50 (CisPt)

T1 sequence (Q9H4E5 1-211 limits assumed): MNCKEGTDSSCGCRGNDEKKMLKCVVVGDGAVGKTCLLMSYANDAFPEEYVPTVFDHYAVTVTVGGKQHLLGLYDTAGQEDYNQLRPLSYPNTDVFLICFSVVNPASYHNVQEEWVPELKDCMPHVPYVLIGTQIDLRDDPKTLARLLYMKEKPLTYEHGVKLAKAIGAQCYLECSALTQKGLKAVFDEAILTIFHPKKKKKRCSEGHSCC

| IC50 (melanoma cells; [1]) | Compound | further results |
| --- | --- | --- |
| > 50 µM | CN(C)c1ccc(Nc2cc(-c3ccccc3)nc(C3CCOCC3)n2)cc1 [Compound 16, N4,N4-dimethyl-N1-(6-phenyl-2-tetrahydropyran-4-yl-pyrimidin-4-yl)benzene-1,4-diamine] | IC50 (melanoma cells; 24 h, read-out: IC50 (alone)): > 50 µM |
| 36.7 µM | COc1ccc(Nc2cc(-c3ccccc3)nc(C3CCNCC3)n2)cc1 [Compound 13, N-(4-methoxyphenyl)-6-phenyl-2-(4-piperidyl)pyrimidin-4-amine] | – |
| > 50 µM | COc1ccc(Nc2cc(-c3ccccc3)nc(C3CCOCC3)n2)cc1 [Compound 17, N-(4-methoxyphenyl)-6-phenyl-2-tetrahydropyran-4-yl-pyrimidin-4-amine] | IC50 (melanoma cells; 24 h, read-out: IC50 (alone)): > 50 µM |
| 17.2 µM | CN(C)c1cccc(Nc2cc(-c3ccccc3)nc(C3CCNCC3)n2)c1 [Compound 14, N3,N3-dimethyl-N1-[6-phenyl-2-(4-piperidyl)pyrimidin-4-yl]benzene-1,3-diamine] | – |
| 22.2 µM | COc1cccc(Nc2cc(-c3ccccc3)nc(C3CCNCC3)n2)c1 [Compound 15, N-(3-methoxyphenyl)-6-phenyl-2-(4-piperidyl)pyrimidin-4-amine] | – |

More lines, now with the values behind:

| Compound | IC50 (melanoma cells; [1]) | further results |
| --- | --- | --- |
| Clc1ccc(Nc2cc(-c3ccncc3)nc(C3CCCNC3)n2)cc1 (stereo not shown) [Compound 1] | 12.8 µM | apoptosis measured by flow cytometry using AnnexinV and PI (WM3248 melanoma cells): apoptosis induced; RhoJ PAK interaction in cell lysates (SDS PAGE and immunoblotting) (RhoJ PAK interaction): block of RhoJ PAK interaction |
| Fc1ccc(-c2cc(Nc3ccccc3)nc(C3CCCNC3)n2)cc1 (stereo not shown) [Compound 7] | 32 µM | – |
| Clc1cccc(Nc2cc(-c3ccncc3)nc(C3CCCNC3)n2)c1 (stereo not shown) [Compound 5] | 42.3 µM | – |
| CN(C)c1ccc(Nc2cc(-c3ccccc3)nc(C3CCNCC3)n2)cc1 [Compound 12, N4,N4-dimethyl-N1-[6-phenyl-2-(4-piperidyl)pyrimidin-4-yl]benzene-1,4-diamine] | – | IC50 (melanoma cells; 24 h, read-out: IC50 (CisPt)): 86.3 µM |
| Clc1ccc(Nc2cc(-c3cccnc3)nc(C3CCCNC3)n2)cc1 (stereo not shown) [Compound 2] | 11.5 µM | – |
| Clc1ccc(Nc2cc(-c3ccccn3)nc(C3CCCNC3)n2)cc1 (stereo not shown) [Compound 3] | 38.2 µM | – |
| COc1ccc(Nc2cc(-c3ccccc3)nc(C3CCCNC3)n2)cc1 (stereo not shown) [Compound 9, N-(4-methoxyphenyl)-6-phenyl-2-(3-piperidyl)pyrimidin-4-amine] | > 50 µM | IC50 (melanoma cells; 24 h, read-out: IC50 (alone)): > 50 µM |
| CN(C)c1ccc(Nc2cc(-c3ccccc3)nc(C3CCCNC3)n2)cc1 (stereo not shown) [Compound 8, N1,N1-dimethyl-N4-[6-phenyl-2-(3-piperidyl)pyrimidin-4-yl]benzene-1,4-diamine] | 31.4 µM | – |
| COc1ccc(-c2cc(Nc3ccc(Cl)cc3)nc(C3CCCNC3)n2)cc1 (stereo not shown) [Compound 6] | 17 µM | – |
| Clc1ccc(Nc2cc(-c3ccccc3)nc(C3CCCNC3)n2)cc1 (stereo not shown) [Compound 4] | 7 µM | – |
| CN(C)c1cccc(Nc2cc(-c3ccccc3)nc(C3CCCNC3)n2)c1 (stereo not shown) [Compound 10, N3,N3-dimethyl-N1-[6-phenyl-2-(3-piperidyl)pyrimidin-4-yl]benzene-1,3-diamine] | – | IC50 (melanoma cells; 24 h, read-out: IC50 (alone)): 45 µM |
| COc1cccc(Nc2cc(-c3ccccc3)nc(C3CCCNC3)n2)c1 (stereo not shown) [Compound 11, N-(3-methoxyphenyl)-6-phenyl-2-(3-piperidyl)pyrimidin-4-amine] | 27.8 µM | – |
